Our source for the IC50 values is patent US5011947A, “Antihypercholesterolemic alkylene compounds” (Bristol-Myers, priority 1990, dated 1991).

Where a name gives a salt, the structure may show the parent alone.

For test [1], the system named is Isolated Hepatocyte Cholesterol Biosynthesis. In words: Test B: Isolated Hepatocyte Cholesterol Biosynthesis Assay. The test is classed as cell-based, male Wistar rats. The following applies: freshly isolated rat hepatocytes, 10 min preincubation, 60 minutes at 37°, pH 7.35, incorporation of 3H or 14C into sterols, read-out: IC50, Inhibition of Isolated Hepatocyte Cholesterol Biosynthesis. As for the experimental part: Test B: Isolated Hepatocyte Cholesterol Biosynthesis Assay:
Intact parenchymal hepatocytes were isolated from male Wistar rats (180-280 g) fed cholestyramine containing or normal diet, using the collagenase perfusion method essentially as described by Seglen, in Methods in Cell Biology (D. Prescott, ed.) Vol. 13, pp. 29-83, Academic Press, New York (1976). Cell preparations were used only when viability (trypan blue exclusion) exceeded 90%. Cholesterol biosynthesis was determined as the incorporation by hepatocytes of ^3 H from [^3 H]-water into total (cellular plus medium) 3β-hydroxy sterols as per Ingebritsen, et al., J. Biol. Chem., 254, 9986-9989 (1979). Hepatocyte sterols and lipids were isolated by a modification of the methods described by Kates, in Techniques in Lipidology. (M. Kates, ed.), pp. 349, 360-363, North Holland Publ. Co., Amsterdam, 1972. To isolate sterols, cells are extracted with methanol:chloroform:water (2:1:0.8), the chloroform phase is separated and extracted with benzene to remove traces of water, then dried under nitrogen. The residue is saponified at 75° C. with 0.30 N NaOH in methanol:water (9:1). […] The ^3 H-labelled sterols are quantified by liquid scintillation and corrected for counting efficiency. […]

Test [2] deals with T1, rat liver HMG-CoA reductase (Rattus norvegicus, UniProt P51639).
T1 construct: from tissue; host or cells: rat liver microsomes
T1 sequence (P51639 1-887): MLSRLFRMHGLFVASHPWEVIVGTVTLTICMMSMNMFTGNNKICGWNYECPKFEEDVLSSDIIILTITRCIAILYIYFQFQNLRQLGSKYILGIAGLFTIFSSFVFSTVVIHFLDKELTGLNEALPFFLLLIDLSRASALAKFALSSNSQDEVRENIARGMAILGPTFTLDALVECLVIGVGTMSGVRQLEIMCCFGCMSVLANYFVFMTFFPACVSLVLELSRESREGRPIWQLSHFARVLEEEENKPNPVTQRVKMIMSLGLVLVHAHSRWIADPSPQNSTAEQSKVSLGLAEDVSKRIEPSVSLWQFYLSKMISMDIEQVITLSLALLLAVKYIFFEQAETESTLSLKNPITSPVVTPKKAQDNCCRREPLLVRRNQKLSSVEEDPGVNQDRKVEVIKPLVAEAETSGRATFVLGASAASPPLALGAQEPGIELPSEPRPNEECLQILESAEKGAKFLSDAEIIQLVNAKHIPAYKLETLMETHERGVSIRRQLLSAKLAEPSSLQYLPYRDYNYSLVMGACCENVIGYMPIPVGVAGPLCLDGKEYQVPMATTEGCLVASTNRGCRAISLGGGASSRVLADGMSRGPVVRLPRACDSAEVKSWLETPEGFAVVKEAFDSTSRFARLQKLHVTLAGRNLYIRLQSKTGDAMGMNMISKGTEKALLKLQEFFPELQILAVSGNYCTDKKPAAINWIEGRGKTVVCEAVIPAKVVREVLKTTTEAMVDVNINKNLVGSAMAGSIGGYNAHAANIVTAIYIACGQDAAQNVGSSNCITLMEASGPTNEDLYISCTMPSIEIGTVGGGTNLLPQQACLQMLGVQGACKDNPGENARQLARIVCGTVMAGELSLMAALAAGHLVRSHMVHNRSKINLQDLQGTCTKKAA
Nature of the test: Test A: In Vitro Inhibition of Microsomal HMG-CoA Reductase. The test is classed as biochemical. Particulars: intact, fully activated microsomal form of rat liver enzyme; [3-14C]-HMG-CoA 0.33 mM; NADPH 3.0 mM; pH 7.2; at least 4 dilutions in duplicate. As for the experimental part:
Test A: In Vitro Inhibition of Microsomal HMG-CoA Reductase:
The intact, fully activated microsomal form of rat liver HMG-CoA reductase (subunit MW ca 100,000 daltons) was prepared as described by Parker, et al., Biochem. Biophys. Res. Commun., 125, 629-635 (1984), and used as the source of enzyme for assays. HMG-CoA reductase activity was determined essentially by the method of Shapiro, et al., Biochem. Biophys. Acta., 370. 369-377 (1974), with modifications as described by Ingebritsen and Gibson, Meth. Enzymol. 71. 486-497 (1981) with the exception that the internal standard ^3 H-mevalonolactone is added after termination of the assay. In this procedure, the enzyme is assayed by measuring the formation of product, ^14 C-mevalonate, from the substrate, [3-^14 C]-HMG-CoA, in the presence of NADPH. The ^14 C-mevalonate is converted to its lactone and isolated by silica thin-layer chromatography (Whatman LK5D, developed in 50:50 benzene:acetone) in the presence of ^3 H-mevalonolactone as an internal standard. Assays were conducted under conditions in which product formation was linear with respect to time and enzyme concentration.
To measure reductase inhibition, test compounds dissolved in water or dimethylsulfoxide and diluted in buffer A (50 mM imidazole-HCl, 250 mM NaCl, 1 mM EDTA, 1 mM EGTA, 5 mM DTT, 20 μM leupeptin, pH =7.2) were incubated with aliquots of microsomes (80-160 μg protein in buffer A) followed by addition of d,l-[3-^14 C]-HMG-CoA (0.33 mM, 2.0 dpm/picomole) and NADPH (3.0 mM). The 50 percent inhibitory concentration IC50) for each compound in Table 1 was calculated from the linear regression line of the percent decrease (from control) in enzyme activity vs. log concentration of inhibitor, determined using at least 4 dilutions of each test compound assayed in duplicate.

What is called IC50 is the concentration that inhibits the measured activity by half. Take `CC(C)C(C=C[C@@H](O)C[C@@H](O)CC(=O)O)=C(c1ccc(F)cc1)c1ccc(F)cc1` (relative stereo) [Example 8, Erythro-9,9-bis(4-fluorophenyl)-3,5-dihydroxy-8-(1-methylethyl)-6,8-nonadienoic acid sodium salt]: the IC50 in test [1] amounted to 27 nM; in test [2], 265 nM.
Molecule `CC(C)(C)C(C=C[C@@H](O)C[C@@H](O)CC(=O)O)=C(c1ccc(F)cc1)c1ccc(F)cc1` (relative stereo) [Example 42, Erythro-9,9-bis(4-fluorophenyl)-3,5-dihydroxy-8-(1,1-dimethylethyl)-6,8-nonadienoic acid sodium salt] returned an IC50 in test [2] of 500 nM.
The same measure, in the same setting: the value for `O=C(O)C[C@H](O)C[C@H](O)C=CC(=C(c1ccc(F)cc1)c1ccc(F)cc1)C1CC1` (relative stereo) [Example 51, Erythro-8-cyclopropyl-9,9-bis(4-fluorophenyl)-3,5-dihydroxy-6,8-nonadienoicacid sodium salt] was 450 nM.
Same read-out and setting: the value for `CCC(C=C[C@@H](O)C[C@@H](O)CC(=O)O)=C(c1ccc(F)cc1)c1ccc(F)cc1` (relative stereo) [Example 59, Erythro-8-ethyl-9,9-bis(4-fluorophenyl)-3,5-dihydroxy-6,8-non adienoate sodium salt] was 410 nM; that for `O=C(O)C[C@H](O)C[C@H](O)C=CC(=C(c1ccc(F)cc1)c1ccc(F)cc1)C(F)(F)F` (relative stereo) [Example 73, Erythro9,9-bis(4-fluorophenyl)-3,5-dihydroxy-8-trifluoromethyl-6,8-nonadienoic acid sodium salt] was 1580 nM.
With `CC[C@H](C)C(=O)O[C@H]1C[C@@H](C)C=C2C=C[C@H](C)[C@H](CC[C@@H]3C[C@@H](O)CC(=O)O3)[C@H]21` [Mevinolin (Lovastatin), reference compound], the IC50 in test [1] is 46 ± 26 nM.
